Numbers after ± are expanded uncertainties.
Details: for viscosity / speed of sound / mass density: 101 kPa, Liquid; for viscosity: Capillary tube (Ostwald / Ubbelohde) method; for speed of sound: Sing-around technique in a fixed-path interferometer; for mass density: Vibrating tube method

For `CCC[N+]1(C)CCCC1.O=S(=O)([N-]S(=O)(=O)C(F)(F)F)C(F)(F)F`, the viscosity (293.15 K) was 66.61 ± 1.4 mPa·s, the speed of sound (293.15 K) was 1281.9 ± 1.5 m/s and the mass density (293.15 K) was 1432.42 ± 0.61 kg/m3. For the same molecule, the viscosity (298.15 K) was 49.35 ± 1 mPa·s, the speed of sound (298.15 K) was 1270.6 ± 1.5 m/s and the mass density (298.15 K) was 1427.86 ± 0.6 kg/m3. The viscosity (303.15 K) was 38.52 ± 0.81 mPa·s, the speed of sound (303.15 K) was 1259 ± 1.5 m/s and the mass density (303.15 K) was 1423.37 ± 0.6 kg/m3. The viscosity (308.15 K) was 30.93 ± 0.65 mPa·s, the speed of sound (308.15 K) was 1249.1 ± 1.5 m/s and the mass density (308.15 K) was 1418.86 ± 0.59 kg/m3. The viscosity (313.15 K) was 26.17 ± 0.55 mPa·s, the speed of sound (313.15 K) was 1238.2 ± 1.5 m/s and the mass density (313.15 K) was 1414.37 ± 0.59 kg/m3. For the same molecule, the viscosity (318.15 K) was 22.39 ± 0.47 mPa·s, the speed of sound (318.15 K) was 1227.4 ± 1.5 m/s and the mass density (318.15 K) was 1409.9 ± 0.58 kg/m3. The viscosity (323.15 K) was 19.31 ± 0.41 mPa·s, the speed of sound (323.15 K) was 1216.9 ± 1.5 m/s and the mass density (323.15 K) was 1405.45 ± 0.58 kg/m3. For the same molecule, the viscosity (328.15 K) was 17.13 ± 0.36 mPa·s, the speed of sound (328.15 K) was 1205.9 ± 1.5 m/s and the mass density (328.15 K) was 1401.01 ± 0.58 kg/m3. The viscosity (333.15 K) was 15.07 ± 0.32 mPa·s, the speed of sound (333.15 K) was 1196.4 ± 1.5 m/s and the mass density (333.15 K) was 1396.59 ± 0.57 kg/m3. For the same molecule, the viscosity (338.15 K) was 13.36 ± 0.28 mPa·s, the speed of sound (338.15 K) was 1186.3 ± 1.5 m/s and the mass density (338.15 K) was 1392.17 ± 0.57 kg/m3. For the same molecule, the viscosity (343.15 K) was 11.93 ± 0.25 mPa·s, the speed of sound (343.15 K) was 1176.2 ± 1.5 m/s and the mass density (343.15 K) was 1387.77 ± 0.56 kg/m3. It also gave a Normal melting temperature (Crystal, DTA) of 11.00 ± 2 °C.
